Blank lines part the entries; values can stand above or below the compound they belong to.
How the values were obtained:
[1] = Procedure: (§1) Different samples of the current solubilizing compound cycloalkyl toluate was combined with available sunscreens Escalol S, avobenzone and oxybenzone at 25° C. […] Solubility was checked for cyclohexyl ester in various sunscreen actives such as bemotrizinol, ethylhexyl triazone, avobenzone & benzophenone-3 in comparison to phenethyl benzoate.
[2] = Comparison of solubilizers combined with sunscreens: clear solution or crystal formation; type: physicochemical; settings: 25° C., FIG. 6
Procedure: as §1

Solubility of Escalol S at 25° C. [1]: 37%
Compound: Cc1ccccc1C(=O)OC1CCCCC1 [Cyclohexyl 2-Toluate]

Solubility of Escalol S at 25° C. [1]: 35%
Compound: Cc1cccc(C(=O)OC2CCCCC2)c1 [Cyclohexyl 3-Toluate]

Solubility of Escalol S at 25° C. [1]: 36%
Compound: Cc1ccc(C(=O)OC2CCCCC2)cc1 [Cyclohexyl 4-Toluate]

Solubility of Escalol S at 25° C. [1]: 30%
Compound: Cc1cccc(C(=O)OCC2CCCCC2)c1 [Cyclohexylmethanol 3-Toluate]

Solubility of Escalol S at 25° C. [1]: 34%
Compound: Cc1cccc(C(=O)OC2CCCC2)c1 [Cyclopentyl 3-Toluate]

Solution appearance when combined with Escalol S, avobenzone and oxybenzone [2]: crystal formations
Solubility @ 25° C. Avobenzone [1]: 20
Solubility @ 25° C. Escalol S [1]: 22
Solubility @ 25° C. Oxybenzone [1]: 34
Compound: O=C(OCCc1ccccc1)c1ccccc1 [Phenethyl benzoate, 2-phenylethyl benzoate, reference compound]

Solubility @ 25° C. Avobenzone [1]: 25
Solubility @ 25° C. Escalol S [1]: 36
Solubility @ 25° C. Oxybenzone [1]: 32
Solubility of Avobenzone at 25° C. [1]: 25%
Solubility of Escalol S at 25° C. [1]: 36%
Solubility percentages of sunscreen active in the solubilizer [1]: 22-33%
Compound: Cyclohexyl Toluate

From patent US10328003B2, “Solubilizing agents for active or functional organic compounds” (ISP INVESTMENTS LLC, priority 2015, dated 2019)
